The record followed here is the NIST ThermoML archive (doi:10.1021/je0498661).

Each structure is given as a SMILES string. ± gives the expanded uncertainty stated by the source.

For this data set the following is noted: 101.33 kPa, Liquid, Hot wire method.

Turning to `C1CCSC1` [tetrahydrothiophene], the thermal conductivity is listed as 0.12 ± 0.003 W/m/K (273.15 K); 0.117 ± 0.002 W/m/K (288.15 K); 0.115 ± 0.002 W/m/K (303.15 K); 0.112 ± 0.002 W/m/K (318.15 K); 0.11 ± 0.002 W/m/K (333.15 K).

For the compound `C1CCCNCC1` [azacycloheptane], the thermal conductivity reads like this: (273.15 K) 0.141 ± 0.003 W/m/K; (293.15 K) 0.137 ± 0.003 W/m/K; (313.15 K) 0.131 ± 0.003 W/m/K; (333.15 K) 0.126 ± 0.003 W/m/K.

As to `CN(C)CCN(C)C` [N,N,N',N'-tetramethyl-1,2-diaminoethane], the thermal conductivity (273.15 K) turned out to be 0.154 ± 0.003 W/m/K, the thermal conductivity (293.15 K) came to 0.15 ± 0.003 W/m/K, the thermal conductivity (313.15 K) came to 0.144 ± 0.003 W/m/K and the thermal conductivity (333.15 K) worked out at 0.135 ± 0.003 W/m/K.

As to `CC#N` [acetonitrile], the thermal conductivity came to 0.207 ± 0.004 W/m/K (273.15 K), 0.195 ± 0.004 W/m/K (293.15 K) and 0.183 ± 0.004 W/m/K (313.15 K).

Turning to `CCSCC` [3-thiapentane], the thermal conductivity (273.15 K) came to 0.145 ± 0.003 W/m/K, the thermal conductivity (293.15 K) stood at 0.14 ± 0.003 W/m/K, the thermal conductivity (313.15 K) is recorded as 0.137 ± 0.003 W/m/K and the thermal conductivity (333.15 K) is given as 0.13 ± 0.003 W/m/K.
